± gives the expanded uncertainty stated by the source.
Settings: Liquid, Closed cell (Static) method

Row | Compound | vapor or sublimation pressure (283.15 K) | vapor or sublimation pressure (293.15 K) | vapor or sublimation pressure (303.15 K) | vapor or sublimation pressure (313.15 K) | vapor or sublimation pressure (323.15 K)
1 | CC(C)C [2-methylpropane] | 220.9 ± 1.1 kPa | 302.7 ± 1.1 kPa | 404.4 ± 1.2 kPa | 531.3 ± 1.3 kPa | 684.2 ± 1.4 kPa
2 | C=C(F)C(F)(F)F [2,3,3,3-tetrafluoro-1-propene] | 437.9 ± 1.2 kPa | 591.5 ± 1.3 kPa | 782.9 ± 1.5 kPa | 1018.2 ± 1.8 kPa | 1302.4 ± 2.1 kPa
3 | FCC(F)(F)F [1,1,1,2-tetrafluoroethane] | 415.5 ± 1.2 kPa | 572.4 ± 1.3 kPa | 768.9 ± 1.5 kPa | 1015.5 ± 1.8 kPa | 1317.2 ± 2.1 kPa

Reference: the NIST ThermoML archive (doi:10.1016/j.fluid.2016.01.028)
